Measurements: PMC7938330 (Toxicology in vitro : an international journal published in …, 2020)

Molecular target: Complex V (ATP synthase complex) (Bos taurus, UniProt P00829+P05631+P19483)
Assay: immunocapture-based OXPHOS activity assay
Assay type: biochemical

With `C1CCC(C(CC2CCCCN2)C2CCCCC2)CC1` (stereo not shown) [perhexiline] the IC50 was 10 nM.
